Data on 32 compounds can be found in patent US12419874B2, “GLP-1R agonist compound and use thereof” (Chongqing Pharmaceutical Research Institute Co., Ltd., priority 2024, dated 2025).

This test deals with GLP-1R (Homo sapiens, UniProt P43220). Put plainly: GLP-1R agonistic activity by One-Lite luciferase assay in HEK293-GLP-1R-luc cells (Example 59). Type of test: cell-based. Conditions: 6 h incubation, read-out: cAMP EC50. As to the method: The agonistic activities of the compounds of the present disclosure on GLP-1R were evaluated by detecting the generation of cAMP.
• (1) Cell line: HEK293-GLP-1R-luc Stable Cell Line (Cobioer, CBP71117); • (2) Culture medium: DMEM+10% FBS (Gibco); • (3) Kit: One-Lite™ kit Luciferase Assay System (Vazyme). 2. Experimental Procedures • (1) HEK293-GLP1R cells were inoculated in a 96-well plate at a density of 30000 cells per well; • (2) 10× working solution of each compound was formulated; • (3) 10 μL of 10× working solution of each compound was added to corresponding well and incubated at 37° C. for 6 h; • (4) 100 μL of One-Lite Luciferase Assay Substrate formulated using One-Lite Luciferase Assay Buffer was added to each well; • (5) The plate was incubated at room temperature for 3 min; • (6) The plate was read by a multimode microplate reader to detect chemiluminescence. 3. Data Analysis • (1) % Activity was calculated by the following formula: % Activity=100−(Signalcmpd−SignalAve-PC)/(SignalAve-VC−SignalAve-PC)×100 • (2) The dose-response curve was plotted to calculate EC50: Y=Bottom+(Top−Bottom)/(1+10^(Log EC50−X)*HillSlope)) • X: log of agonist concentration; Y: Activity. 4. Experimental Results

Sequence of GLP-1R (P43220 24-463): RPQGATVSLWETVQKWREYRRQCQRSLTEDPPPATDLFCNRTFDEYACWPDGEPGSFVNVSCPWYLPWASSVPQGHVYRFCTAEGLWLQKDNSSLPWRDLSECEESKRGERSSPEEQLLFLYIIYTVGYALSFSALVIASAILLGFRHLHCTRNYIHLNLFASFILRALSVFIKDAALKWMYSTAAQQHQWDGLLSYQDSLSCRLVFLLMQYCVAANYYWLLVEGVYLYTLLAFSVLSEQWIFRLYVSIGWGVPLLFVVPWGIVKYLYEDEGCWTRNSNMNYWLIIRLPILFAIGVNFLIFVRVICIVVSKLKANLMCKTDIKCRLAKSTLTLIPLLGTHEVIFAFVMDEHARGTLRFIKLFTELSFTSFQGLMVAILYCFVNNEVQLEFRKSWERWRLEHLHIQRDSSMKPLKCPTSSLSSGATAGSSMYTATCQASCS

As usually defined, the EC50 is the concentration giving half of the maximal effect. In the case of `Cc1cc(-n2nc3c(c2-n2ccn(-c4ccc5c(cnn5C)c4F)c2=O)[C@H](C)N(C(=O)c2cc4cc([C@H]5CCOC(C)(C)C5)ccc4n2[C@@]2(c4noc(=O)[nH]4)C[C@@H]2C)CC32CCN(C)C2)cc(C)c1F` (some centres unmarked) [Compound 79], the EC50 is at most 0.02 µM.
Take `Cc1cc(-n2nc3c(c2-n2ccn(-c4ccc5c(cnn5C)c4F)c2=O)[C@H](C)N(C(=O)c2cc4cc(C5CCOC(C)(C)C5)ccn4c2C2(c4noc(=O)[nH]4)CC2)CC32CC2)cc(C)c1F` (single isomer, unassigned) [Compound 185-A]: the EC50 was above 0.3 µM.
Next, `Cc1cc(-n2nc3c(c2-n2ccn(-c4ccc5c(cnn5C)c4F)c2=O)[C@H](C)N(C(=O)c2cc4cc([C@H]5CCOC(C)(C)C5)ccc4n2[C@@]2(c4noc(=O)[nH]4)C[C@@H]2C)CC32CCN(C=O)CC2)cc(C)c1F` [Compound 64]: at most 0.02 µM; `Cc1cc(-n2nc3c(c2-n2ccn(-c4ccc5c(cnn5C)c4F)c2=O)[C@H](C)N(C(=O)c2cc4cc([C@H]5CCOC(C)(C)C5)ccc4n2[C@@]2(c4noc(=O)[nH]4)C[C@@H]2C)CC32CCN(C(N)=O)CC2)cc(C)c1F` [Compound 162]: at most 0.02 µM.
Under `Cc1cc(-n2nc3c(c2-n2ccn(-c4ccc5c(cnn5C)c4F)c2=O)[C@H](C)N(C(=O)c2cc4cc([C@H]5CCOC(C)(C)C5)ccc4n2[C@@]2(c4noc(=O)[nH]4)C[C@@H]2C)CC32CCN(C(=O)CN)CC2)cc(C)c1F` [Compound 161] stands at most 0.02 µM.
Under `Cc1cc(-n2nc3c(c2-n2ccn(-c4ccc5c(cnn5C)c4F)c2=O)[C@H](C)N(C(=O)c2cc4cc([C@H]5CCOC(C)(C)C5)ccc4n2[C@@]2(c4noc(=O)[nH]4)C[C@@H]2C)CC32CS(=O)(=O)C2)cc(C)c1F` [Compound 191] stands at most 0.02 µM.
Turning to `Cc1cc(-n2nc3c(c2-n2ccn(-c4ccc5c(cnn5C)c4F)c2=O)[C@H](C)N(C(=O)c2cc4cc([C@H]5CCOC(C)(C)C5)ccc4n2[C@@]2(c4noc(=O)[nH]4)C[C@@H]2C)CC32CCC(F)(F)CC2)cc(C)c1F` [Compound 200], the EC50 was in the range of 0.02 to 0.1 µM.
Under `COC1CC2(C1)CN(C(=O)c1cc3cc([C@H]4CCOC(C)(C)C4)ccc3n1[C@@]1(c3noc(=O)[nH]3)C[C@@H]1C)[C@@H](C)c1c2nn(-c2cc(C)c(F)c(C)c2)c1-n1ccn(-c2ccc3c(cnn3C)c2F)c1=O` (some centres unmarked) [Compound 184] stands at most 0.02 µM.
Next, `COC1CCC2(C1)CN(C(=O)c1cc3cc([C@H]4CCOC(C)(C)C4)ccc3n1[C@@]1(c3noc(=O)[nH]3)C[C@@H]1C)[C@@H](C)c1c2nn(-c2cc(C)c(F)c(C)c2)c1-n1ccn(-c2ccc3c(cnn3C)c2F)c1=O` (some centres unmarked) [Compound 210]: at most 0.02 µM; `Cc1cc(-n2nc3c(c2-n2ccn(-c4ccc5c(cnn5C)c4F)c2=O)[C@H](C)N(C(=O)c2cc4cc([C@H]5CCOC(C)(C)C5)ccc4n2[C@@]2(c4noc(=O)[nH]4)C[C@@H]2C)CC32CC(OC(C)C)C2)cc(C)c1F` (some centres unmarked) [Compound 192]: at most 0.02 µM; `Cc1cc(-n2nc3c(c2-n2ccn(-c4ccc5c(cnn5C)c4F)c2=O)[C@H](C)N(C(=O)c2cc4cc([C@H]5CCOC(C)(C)C5)ccc4n2[C@@]2(c4noc(=O)[nH]4)C[C@@H]2C)CC32C=CCC2)cc(C)c1F` (some centres unmarked) [Compound 197]: at most 0.02 µM.
Next, `[2H]C([2H])([2H])OC1CC2(C1)CN(C(=O)c1cc3cc([C@H]4CCOC(C)(C)C4)ccc3n1[C@@]1(c3noc(=O)[nH]3)C[C@@H]1C)[C@@H](C)c1c2nn(-c2cc(C)c(F)c(C)c2)c1-n1ccn(-c2ccc3c(cnn3C)c2F)c1=O` (some centres unmarked) [Compound 207]: at most 0.02 µM; `COC1CC2(CC1OC)CN(C(=O)c1cc3cc([C@H]4CCOC(C)(C)C4)ccc3n1[C@@]1(c3noc(=O)[nH]3)C[C@@H]1C)[C@@H](C)c1c2nn(-c2cc(C)c(F)c(C)c2)c1-n1ccn(-c2ccc3c(cnn3C)c2F)c1=O` (some centres unmarked) [Compound 214]: at most 0.02 µM.
As for `Cc1cc(-n2nc3c(c2-n2ccn(-c4ccc5c(cnn5C)c4F)c2=O)[C@H](C)N(C(=O)c2cc4cc([C@H]5CCOC(C)(C)C5)ccc4n2[C@@]2(c4noc(=O)[nH]4)C[C@@H]2C)CC32CCC(F)C2)cc(C)c1F` (some centres unmarked) [Compound 211], the EC50 was at most 0.02 µM.
In the case of `Cc1cc(-n2nc3c(c2-n2ccn(-c4ccc5c(cnn5C)c4F)c2=O)[C@H](C)N(C(=O)c2cc4cc([C@H]5CCOC(C)(C)C5)ccc4n2[C@@]2(c4noc(=O)[nH]4)C[C@@H]2C)CC32CCNC2)cc(C)c1F` (some centres unmarked) [Compound 195], the EC50 is at most 0.02 µM.
Next, `Cc1cc(-n2nc3c(c2-n2ccn(-c4ccc5c(cnn5C)c4F)c2=O)[C@H](C)N(C(=O)c2cc4cc([C@H]5CCOC(C)(C)C5)ccc4n2[C@@]2(c4noc(=O)[nH]4)C[C@@H]2C)CC32CC(C)(O)C2)cc(C)c1F` (some centres unmarked) [Compound 179]: at most 0.02 µM; `Cc1cc(-n2nc3c(c2-n2ccn(-c4ccc5c(cnn5C)c4F)c2=O)[C@H](C)N(C(=O)c2cc4cc([C@H]5CCOC(C)(C)C5)ccc4n2[C@@]2(c4noc(=O)[nH]4)C[C@@H]2C)CC32CCC(=O)C2)cc(C)c1F` (some centres unmarked) [Compound 208]: at most 0.02 µM.
Next, `Cc1cc(-n2nc3c(c2-n2ccn(-c4ccc5c(cnn5C)c4F)c2=O)[C@H](C)N(C(=O)c2cc4cc([C@H]5CCOC(C)(C)C5)ccc4n2[C@@]2(c4noc(=O)[nH]4)C[C@@H]2C)CC32CC=CCC2)cc(C)c1F` (some centres unmarked) [Compound 203]: at most 0.02 µM.
Under `Cc1cc(-n2nc3c(c2-n2ccn(-c4ccc5c(cnn5C)c4F)c2=O)[C@H](C)N(C(=O)c2cc4cc([C@H]5CCOC(C)(C)C5)ccc4n2[C@@]2(c4noc(=O)[nH]4)C[C@@H]2C)CC32CCCN(C)C2)cc(C)c1F` (single isomer, unassigned) [Compound 53-A] stands at most 0.02 µM; under `Cc1cc(-n2nc3c(c2-n2ccn(-c4ccc5c(cnn5CC(F)(F)F)c4F)c2=O)[C@H](C)N(C(=O)c2cc4cc([C@H]5CCOC(C)(C)C5)ccc4n2[C@@]2(c4noc(=O)[nH]4)C[C@@H]2C)CC32CC2)cc(C)c1F` [Compound 223], at most 0.02 µM.
For `C[C@H]1c2c(nn(-c3ccc(F)c(C4CC4)c3)c2-n2ccn(-c3ccc4c(cnn4C)c3F)c2=O)C2(CC2)CN1C(=O)c1cc2cc(C3CCOC(C)(C)C3)ccn2c1C1(c2noc(=O)[nH]2)CC1` (single isomer, unassigned) [Compound 186-A], the EC50 was above 0.3 µM.
Under `Cc1cc(-n2nc3c(c2-n2ccn(-c4ccc5c(cnn5C)c4F)c2=O)[C@H](C)N(C(=O)c2cc4cc([C@H]5CCOC(C)(C)C5)ccc4n2[C@@]2(c4noc(=O)[nH]4)C[C@@H]2C)CC32C[S+]([O-])C2)cc(C)c1F` (some centres unmarked) [Compound 190] stands at most 0.02 µM; under `COCC(=O)N1CCC2(CC1)CN(C(=O)c1cc3cc([C@H]4CCOC(C)(C)C4)ccc3n1[C@@]1(c3noc(=O)[nH]3)C[C@@H]1C)[C@@H](C)c1c2nn(-c2cc(C)c(F)c(C)c2)c1-n1ccn(-c2ccc3c(cnn3C)c2F)c1=O` [Compound 158], at most 0.02 µM; under `Cc1cc(-n2nc3c(c2-n2ccn(-c4ccc5c(ccn5C)c4F)c2=O)[C@H](C)N(C(=O)c2cc4cc([C@H]5CCOC(C)(C)C5)ccc4n2[C@@]2(c4noc(=O)[nH]4)C[C@@H]2C)CC32CCCNC2)cc(C)c1F` (single isomer, unassigned) [Compound 51-A], at most 0.02 µM.
Under `Cc1cc(-n2nc3c(c2-n2ccn(-c4ccc5c(cnn5C)c4F)c2=O)[C@H](C)N(C(=O)c2cc4cc([C@H]5CCOC(C)(C)C5)ccc4n2[C@@]2(c4noc(=O)[nH]4)C[C@@H]2C)CC32CC(O)C2)cc(C)c1F` (some centres unmarked) [Compound 181] stands at most 0.02 µM; under `Cc1cc(-n2nc3c(c2-n2ccn(-c4ccc5c(cnn5C)c4F)c2=O)[C@H](C)N(C(=O)c2cc4cc([C@H]5CCOC(C)(C)C5)ccc4n2[C@@]2(c4noc(=O)[nH]4)C[C@@H]2C)CC32CCN(S(C)(=O)=O)CC2)cc(C)c1F` [Compound 156], at most 0.02 µM; under `Cc1cc(-n2nc3c(c2-n2ccn(-c4ccc5c(cnn5C)c4F)c2=O)[C@H](C)N(C(=O)c2cc4cc([C@H]5CCOC(C)(C)C5)ccc4n2[C@@]2(c4noc(=O)[nH]4)C[C@@H]2C)CC32CCCCC2)cc(C)c1F` [Compound 37], 0.02 to 0.1 µM.
Next, `Cc1cc(-n2nc3c(c2-n2ccn(-c4ccc5c(cnn5C)c4F)c2=O)[C@H](C)N(C(=O)c2cc4cc([C@H]5CCOC(C)(C)C5)ccc4n2[C@@]2(c4noc(=O)[nH]4)C[C@@H]2C)CC32CC=CC2)cc(C)c1F` [Compound 172]: at most 0.02 µM; `Cc1cc(-n2nc3c(c2-n2ccn(-c4ccc5c(cnn5C)c4F)c2=O)[C@H](C)N(C(=O)c2cc4cc([C@H]5CCOC(C)(C)C5)ccc4n2[C@@]2(c4noc(=O)[nH]4)C[C@@H]2C)CC32CCSCC2)cc(C)c1F` [Compound 188]: at most 0.02 µM; `Cc1cc(-n2nc3c(c2-n2ccn(-c4ccc5c(cnn5C)c4F)c2=O)[C@H](C)N(C(=O)c2cc4cc([C@H]5CCOC(C)(C)C5)ccc4n2[C@@]2(c4noc(=O)[nH]4)C[C@@H]2C)CC32CSC2)cc(C)c1F` [Compound 189]: at most 0.02 µM.
Regarding `CNC(=O)N1CCC2(CC1)CN(C(=O)c1cc3cc([C@H]4CCOC(C)(C)C4)ccc3n1[C@@]1(c3noc(=O)[nH]3)C[C@@H]1C)[C@@H](C)c1c2nn(-c2cc(C)c(F)c(C)c2)c1-n1ccn(-c2ccc3c(cnn3C)c2F)c1=O` [Compound 163], the half-maximal effective concentration (EC50) was at most 0.02 µM.
Next, `Cc1cc(-n2nc3c(c2-n2ccn(-c4ccc5c(cnn5C)c4F)c2=O)[C@H](C)N(C(=O)c2cc4cc([C@H]5CCOC(C)(C)C5)ccc4n2[C@@]2(c4noc(=O)[nH]4)C[C@@H]2C)CC32CC(O)C(O)C2)cc(C)c1F` (some centres unmarked) [Compound 213]: at most 0.02 µM.
